Measurements: ChEMBL document CHEMBL3351341, “Discovery of a potent and selective EGFR inhibitor (AZD9291) of both sensitizing and T790M resistance mutations that spares the wild type form of the receptor” (J Med Chem, 2014)
In brackets after ≈: the same amount, converted by molar mass.

Experiments:
[1] = Lipophilicity, log D of the compound at pH 7.4; format: physicochemical; conditions: buffer
[2] = Cmax in mouse at 10 mg/kg, po; format: ADME, organism-based; set-up: dose 10 mg/kg, route oral; conditions: in vivo
Rattus norvegicus = experiment: Clearance in iv dosed Han Wistar rat; format: ADME, organism-based; conditions: in vivo
[3] = Intrinsic clearance in human hepatocytes measured per 10^6 cells; format: ADME, cell-based, Hepatocyte; conditions: read-out: CLH
[4] = Oral bioavailability in Han Wistar rat at 5 mg/kg; format: ADME, organism-based; conditions: in vivo
[5] = molecular target: Voltage-gated inwardly rectifying potassium channel KCNH2 (Homo sapiens, UniProt Q12809); experiment: Inhibition of human ERG
Chain of Voltage-gated inwardly rectifying potassium channel KCNH2 (Q12809 whole entry): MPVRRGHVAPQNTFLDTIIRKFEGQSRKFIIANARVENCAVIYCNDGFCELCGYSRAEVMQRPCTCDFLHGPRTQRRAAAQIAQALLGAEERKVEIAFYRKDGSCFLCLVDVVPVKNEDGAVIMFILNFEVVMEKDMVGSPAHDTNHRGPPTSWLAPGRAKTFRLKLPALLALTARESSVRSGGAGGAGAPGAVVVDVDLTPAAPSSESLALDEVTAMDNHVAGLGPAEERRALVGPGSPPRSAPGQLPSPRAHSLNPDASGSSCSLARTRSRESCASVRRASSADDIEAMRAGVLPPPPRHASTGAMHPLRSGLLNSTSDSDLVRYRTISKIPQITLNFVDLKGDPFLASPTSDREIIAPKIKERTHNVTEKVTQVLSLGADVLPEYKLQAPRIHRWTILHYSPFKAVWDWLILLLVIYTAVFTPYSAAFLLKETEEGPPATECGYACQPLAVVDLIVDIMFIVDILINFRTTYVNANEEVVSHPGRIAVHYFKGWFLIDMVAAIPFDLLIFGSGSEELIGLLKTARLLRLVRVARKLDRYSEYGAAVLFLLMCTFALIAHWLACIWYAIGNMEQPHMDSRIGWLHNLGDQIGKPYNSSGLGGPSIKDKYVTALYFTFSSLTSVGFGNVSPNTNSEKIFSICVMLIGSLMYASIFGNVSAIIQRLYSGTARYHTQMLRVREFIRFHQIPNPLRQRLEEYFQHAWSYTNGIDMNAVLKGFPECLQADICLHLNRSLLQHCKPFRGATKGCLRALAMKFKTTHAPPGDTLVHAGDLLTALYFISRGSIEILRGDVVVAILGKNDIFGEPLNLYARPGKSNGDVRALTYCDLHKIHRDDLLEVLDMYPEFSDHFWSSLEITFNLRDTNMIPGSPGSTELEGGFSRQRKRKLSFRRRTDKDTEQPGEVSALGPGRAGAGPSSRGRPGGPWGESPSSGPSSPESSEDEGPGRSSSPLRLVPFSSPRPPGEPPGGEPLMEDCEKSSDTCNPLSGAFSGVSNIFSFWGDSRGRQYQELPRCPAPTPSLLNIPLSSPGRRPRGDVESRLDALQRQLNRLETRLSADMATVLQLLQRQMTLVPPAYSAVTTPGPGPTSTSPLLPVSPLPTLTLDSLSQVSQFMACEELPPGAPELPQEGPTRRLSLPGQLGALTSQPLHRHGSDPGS

[6] = Unbound fraction in human plasma; format: ADME, cell-free
[7] = Cytotoxicity against human Calu3 cells assessed as growth inhibition after 72 hrs by SYTOX green nucleic acid staining-based fluorescence assay; format: functional, Calu-3; conditions: Homo sapiens, Calu-3, 72 h
NCI-H1975 [8] = experiment: Cytotoxicity against human NCI-H1975 cells harboring EGFR L858R/[…] double mutant assessed as growth inhibition after 72 hrs by SYTOX green nucleic acid staining-based fluorescence assay; format: functional; conditions: Homo sapiens, NCI-H1975, 72 h
[9] = Cytotoxicity against human PC9 cells harboring EGFR exon 19 deletion activating mutant assessed as growth inhibition after 72 hrs by SYTOX green nucleic acid staining-based fluorescence assay; format: functional, PC-9; conditions: Homo sapiens, PC-9, 72 h
[10] = Thermodynamic solubility of the compound at pH 7.4; format: physicochemical; conditions: buffer, read-out: Therm_solubility
[11] = molecular target: T1, Insulin-like growth factor 1 receptor (Homo sapiens, UniProt P08069); experiment: Inhibition of IGF1R (unknown origin)
T1 sequence (P08069 31-736 limits assumed): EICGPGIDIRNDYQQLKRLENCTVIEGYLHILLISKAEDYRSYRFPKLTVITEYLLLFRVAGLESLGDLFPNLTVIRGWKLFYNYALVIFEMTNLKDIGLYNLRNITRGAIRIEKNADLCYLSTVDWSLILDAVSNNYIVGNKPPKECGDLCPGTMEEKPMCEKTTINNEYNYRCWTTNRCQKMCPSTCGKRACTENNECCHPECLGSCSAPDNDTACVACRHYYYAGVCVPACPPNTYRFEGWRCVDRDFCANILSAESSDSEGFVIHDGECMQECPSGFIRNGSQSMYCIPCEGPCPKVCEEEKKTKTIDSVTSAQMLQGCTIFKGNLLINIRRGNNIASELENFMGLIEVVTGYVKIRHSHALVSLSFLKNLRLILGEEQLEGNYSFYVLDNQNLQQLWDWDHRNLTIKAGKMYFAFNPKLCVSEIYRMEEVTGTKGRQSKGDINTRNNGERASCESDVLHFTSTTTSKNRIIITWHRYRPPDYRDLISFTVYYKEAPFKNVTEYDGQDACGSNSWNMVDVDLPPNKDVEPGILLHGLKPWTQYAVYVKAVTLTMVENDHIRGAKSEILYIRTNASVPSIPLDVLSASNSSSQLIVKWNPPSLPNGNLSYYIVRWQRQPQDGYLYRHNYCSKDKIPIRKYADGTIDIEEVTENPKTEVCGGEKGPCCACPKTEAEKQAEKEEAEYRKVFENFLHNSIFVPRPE
T1 sequence (P08069 741-1367 limits assumed): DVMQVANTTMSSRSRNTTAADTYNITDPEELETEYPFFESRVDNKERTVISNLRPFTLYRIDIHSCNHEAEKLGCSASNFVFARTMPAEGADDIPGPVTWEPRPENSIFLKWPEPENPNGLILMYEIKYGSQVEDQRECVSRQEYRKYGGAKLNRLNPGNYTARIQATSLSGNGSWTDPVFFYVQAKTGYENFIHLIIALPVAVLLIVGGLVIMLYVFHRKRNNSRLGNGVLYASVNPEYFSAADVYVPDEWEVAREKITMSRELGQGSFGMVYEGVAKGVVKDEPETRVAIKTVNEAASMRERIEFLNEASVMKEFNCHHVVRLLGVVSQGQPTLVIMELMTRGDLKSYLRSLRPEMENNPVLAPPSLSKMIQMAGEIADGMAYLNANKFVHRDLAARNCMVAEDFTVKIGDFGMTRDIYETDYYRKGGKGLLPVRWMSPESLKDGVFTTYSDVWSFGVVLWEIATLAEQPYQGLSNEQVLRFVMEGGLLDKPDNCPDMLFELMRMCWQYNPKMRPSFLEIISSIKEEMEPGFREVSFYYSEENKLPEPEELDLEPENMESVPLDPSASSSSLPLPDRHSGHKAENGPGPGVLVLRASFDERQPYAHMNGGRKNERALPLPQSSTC

A-431 [12] = experiment: Antitumor activity against human A431 cells xenografted in SCID mouse assessed as tumor growth inhibition at 5 mg/kg/day, po qd for 7 days relative to control; format: functional; conditions: Mus musculus, A-431, 168 h, read-out: TGI
[13] = Unbound fraction in nude mouse plasma; format: ADME, cell-free
NCI-H1975 [14] = experiment: Antitumor activity against human NCI-H1975 cells harboring EGFR L858R/[…] double mutant xenografted in SCID mouse assessed as tumor growth inhibition at 5 mg/kg/day, po qd for 7 days relative to control; format: functional; conditions: Mus musculus, NCI-H1975, 168 h, read-out: TGI
[15] = Fraction unbound in Han Wistar rat plasma; format: ADME, cell-free
NCI-H1975 [16] = experiment: Antitumor activity against human NCI-H1975 cells harboring EGFR L858R/[…] double mutant xenografted in SCID mouse assessed as tumor growth inhibition at 10 mg/kg/day, po qd for 7 days relative to control; format: functional; conditions: Mus musculus, NCI-H1975, 168 h, read-out: TGI
A-431 [17] = experiment: Antitumor activity against human A431 cells xenografted in SCID mouse assessed as tumor growth inhibition at 10 mg/kg/day, po qd for 7 days relative to control; format: functional; conditions: Mus musculus, A-431, 168 h, read-out: TGI
NCI-H1975 [18] = experiment: Antitumor activity against human NCI-H1975 cells harboring EGFR L858R/[…] double mutant xenografted in SCID mouse assessed as tumor growth inhibition at […], po qd for 7 days relative to control; format: functional; conditions: Mus musculus, NCI-H1975, 168 h, read-out: TGI
A-431 [19] = experiment: Antitumor activity against human A431 cells xenografted in SCID mouse assessed as tumor growth inhibition at […], po qd for 7 days relative to control; format: functional; conditions: Mus musculus, A-431, 168 h, read-out: TGI
[20] = Antitumor activity against human PC9 cells harboring EGFR exon 19 deletion activating mutant xenografted in SCID mouse assessed as tumor growth inhibition at 10 mg/kg/day, po qd for 7 days relative to control; format: functional, PC-9; conditions: Homo sapiens, PC-9, 168 h, read-out: TGI
Mus musculus [21] = experiment: Inhibition of EGFR exon 19 deletion activating mutant phosphorylation in human PC9 cells xenografted in SCID mouse at 10 mg/kg, po measured 6 hrs post dose; format: functional; conditions: PC-9, 6 h
Insulin receptor [22] = molecular target: T2, Insulin receptor (Homo sapiens, UniProt P06213); experiment: Inhibition of INSR (unknown origin)
T2 sequence (P06213 28-758 limits assumed): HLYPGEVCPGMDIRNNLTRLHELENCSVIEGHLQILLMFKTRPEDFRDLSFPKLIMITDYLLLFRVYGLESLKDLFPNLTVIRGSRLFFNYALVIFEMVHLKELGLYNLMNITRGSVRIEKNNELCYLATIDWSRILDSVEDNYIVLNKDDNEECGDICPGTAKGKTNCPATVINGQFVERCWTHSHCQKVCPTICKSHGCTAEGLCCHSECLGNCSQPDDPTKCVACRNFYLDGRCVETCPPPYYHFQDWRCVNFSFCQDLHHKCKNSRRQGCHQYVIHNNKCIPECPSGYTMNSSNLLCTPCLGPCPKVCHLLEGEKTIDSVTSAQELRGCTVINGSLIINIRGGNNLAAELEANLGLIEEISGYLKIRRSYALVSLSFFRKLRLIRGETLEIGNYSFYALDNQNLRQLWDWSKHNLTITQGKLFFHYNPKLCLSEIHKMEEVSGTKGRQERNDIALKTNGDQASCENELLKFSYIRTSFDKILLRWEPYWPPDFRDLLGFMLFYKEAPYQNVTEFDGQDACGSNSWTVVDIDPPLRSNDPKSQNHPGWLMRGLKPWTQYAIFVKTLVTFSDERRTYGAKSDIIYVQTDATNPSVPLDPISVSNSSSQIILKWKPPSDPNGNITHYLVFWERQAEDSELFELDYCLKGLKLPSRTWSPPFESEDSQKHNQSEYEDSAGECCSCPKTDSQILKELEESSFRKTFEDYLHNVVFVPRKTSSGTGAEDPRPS
T2 sequence (P06213 763-1382 limits assumed): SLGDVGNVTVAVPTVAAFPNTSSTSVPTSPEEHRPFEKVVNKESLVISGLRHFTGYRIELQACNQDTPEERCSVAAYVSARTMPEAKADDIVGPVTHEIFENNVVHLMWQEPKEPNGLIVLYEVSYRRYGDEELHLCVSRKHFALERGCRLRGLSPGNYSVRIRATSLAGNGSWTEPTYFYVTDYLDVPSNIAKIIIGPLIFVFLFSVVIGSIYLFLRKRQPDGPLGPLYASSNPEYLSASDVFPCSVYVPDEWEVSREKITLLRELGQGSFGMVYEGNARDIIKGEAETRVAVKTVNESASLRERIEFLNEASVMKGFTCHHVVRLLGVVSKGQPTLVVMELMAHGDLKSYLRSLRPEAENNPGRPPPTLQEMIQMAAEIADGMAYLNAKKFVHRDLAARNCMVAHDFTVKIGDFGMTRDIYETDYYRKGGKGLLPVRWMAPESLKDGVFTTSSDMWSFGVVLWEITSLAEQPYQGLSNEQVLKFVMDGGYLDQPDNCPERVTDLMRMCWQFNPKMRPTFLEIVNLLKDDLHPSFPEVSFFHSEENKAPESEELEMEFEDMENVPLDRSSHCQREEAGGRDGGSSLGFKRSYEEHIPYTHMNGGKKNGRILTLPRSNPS

[23] = molecular target: T1, Insulin-like growth factor 1 receptor; experiment: Inhibition of IGF1R (unknown origin) at 1 uM relative to control
Mus musculus [24] = experiment: Inhibition of EGFR exon 19 deletion activating mutant phosphorylation in human PC9 cells xenografted in SCID mouse at 10 mg/kg, po measured 24 hrs post dose; format: functional; conditions: PC-9, 24 h
Insulin receptor [25] = molecular target: T2, Insulin receptor; experiment: Inhibition of INSR (unknown origin) at 1 uM relative to control
Mus musculus [26] = experiment: Inhibition of EGFR L858R/[…] double mutant phosphorylation in human NCI-H1975 cells xenografted in SCID mouse at 10 mg/kg, po measured 6 hrs post dose; format: functional; conditions: NCI-H1975, 6 h
Mus musculus [27] = experiment: Inhibition of EGFR L858R/[…] double mutant phosphorylation in human NCI-H1975 cells xenografted in SCID mouse at 10 mg/kg, po measured 24 hrs post dose; format: functional; conditions: NCI-H1975, 24 h
Mus musculus [28] = experiment: Inhibition of EGFR exon 19 deletion activating mutant phosphorylation in human PC9 cells xenografted in SCID mouse at 10 mg/kg, po measured 16 hrs post dose; format: functional; conditions: PC-9, 16 h
Mus musculus [29] = experiment: Inhibition of EGFR L858R/[…] double mutant phosphorylation in human NCI-H1975 cells xenografted in SCID mouse at 10 mg/kg, po measured 1 hr post dose; format: functional; conditions: NCI-H1975, 1 h
Mus musculus [30] = experiment: Inhibition of EGFR L858R/[…] double mutant phosphorylation in human NCI-H1975 cells xenografted in SCID mouse at 10 mg/kg, po measured 30 hrs post dose; format: functional; conditions: NCI-H1975, 30 h
Mus musculus [31] = experiment: Inhibition of EGFR L858R/[…] double mutant phosphorylation in human NCI-H1975 cells xenografted in SCID mouse at 10 mg/kg, po measured 16 hrs post dose; format: functional; conditions: NCI-H1975, 16 h
Mus musculus [32] = experiment: Inhibition of EGFR exon 19 deletion activating mutant phosphorylation in human PC9 cells xenografted in SCID mouse at 10 mg/kg, po measured 1 hr post dose; format: functional; conditions: PC-9, 1 h

C=CC(=O)Nc1cc(Nc2ncc(Cl)c(-c3cnn4ccccc34)n2)c(OC)cc1N1CCN(C(=O)CNC)CC1
logD [1]: 1.8

C=CC(=O)Nc1cc(Nc2ncc(Cl)c(-c3cnn4ccccc34)n2)c(OC)cc1N1CCN(C(=O)CN(C)C)CC1
logD [1]: 2.6

C=CC(=O)Nc1cc(Nc2ncc(Cl)c(-c3cn(C)c4ccccc34)n2)c(OC)cc1N(C)CCN(C)C
logD [1]: 3.3 | Cmax [2]: 310 nM | clearance (Rattus norvegicus): 27 mL/min/kg | hepatocyte CLint [3]: 10 µL/min/1e6 cells | bioavailability [4]: 7% | IC50 [5]: 7.4 µM | fraction unbound [6]: 0.023 | GI50 [7]: 0.192 µM | GI50 (NCI-H1975 [8]): 0.004 µM | GI50 [9]: 0.003 µM | solubility thermodynamic [10]: 759 µM (≈ 405 µg/mL) | IC50 [11]: 0.04 µM

C=CC(=O)Nc1cc(Nc2ncc(Cl)c(-c3cnn4ccccc34)n2)c(OC)cc1N1CCN(C(=O)[C@@H](C)N)CC1
logD [1]: 2.1

C=CC(=O)Nc1cc(Nc2ncc(Cl)c(-c3cnn4ccccc34)n2)c(OC)cc1N1CCN(C(=O)[C@@H]2CCCCN2)CC1
logD [1]: 2.2

C=CC(=O)Nc1cc(Nc2nccc(-c3c[nH]c4ccccc34)n2)c(OC)cc1N(C)CCN(C)C
logD [1]: 2.9 | inhibition in vivo at 5 mg/kg/day (A-431 [12]): 85% | fraction unbound [13]: 0.134 | inhibition in vivo at 5 mg/kg/day (NCI-H1975 [14]): 125% | fraction unbound [6]: 0.075 | GI50 [7]: 0.058 µM | fraction unbound [15]: 0.16 | inhibition in vivo at 10 mg/kg/day (NCI-H1975 [16]): 123% | GI50 (NCI-H1975 [8]): 0.016 µM | inhibition in vivo at 10 mg/kg/day (A-431 [17]): 133% | GI50 [9]: 0.021 µM | inhibition in vivo at […] (NCI-H1975 [18]): 78% | solubility thermodynamic [10]: 79 µM (≈ 38.4 µg/mL) | inhibition in vivo at […] (A-431 [19]): 83% | IC50 [11]: 0.263 µM

C=CC(=O)Nc1cc(Nc2ncc(Cl)c(-c3cnn4ccccc34)n2)c(OC)cc1N1CC[C@@H](N(C)C)C1
inhibition in vivo at 10 mg/kg/day [20]: 227% | inhibition in vivo at 10 mg/kg (Mus musculus [21]): 76% | IC50 (Insulin receptor [22]): 0.021 µM | inhibition [23]: 98% | inhibition in vivo at 10 mg/kg (Mus musculus [24]): 68% | inhibition in vivo at 10 mg/kg/day (A-431 [17]): 27% | inhibition (Insulin receptor [25]): 98% | inhibition in vivo at 10 mg/kg (Mus musculus [26]): 94% | IC50 [11]: 0.007 µM | inhibition in vivo at 10 mg/kg (Mus musculus [27]): 88%

C=CC(=O)Nc1cc(Nc2ncc(Cl)c(-c3cnn4ccccc34)n2)c(OC)cc1N1CCN(C(=O)[C@H]2CCCCN2)CC1
logD [1]: 2.2

C=CC(=O)Nc1cc(Nc2ncc(Cl)c(-c3cnn4ccccc34)n2)c(OC)cc1N1CC(N(C)C)C1
inhibition in vivo at 10 mg/kg/day [20]: 169% | inhibition in vivo at 10 mg/kg (Mus musculus [28]): 52% | inhibition in vivo at 10 mg/kg (Mus musculus [21]): 85% | IC50 (Insulin receptor [22]): 0.035 µM | inhibition in vivo at 10 mg/kg (Mus musculus [29]): 37% | inhibition in vivo at 10 mg/kg (Mus musculus [30]): 50% | inhibition [23]: 97% | inhibition in vivo at 10 mg/kg (Mus musculus [24]): 19% | inhibition in vivo at 10 mg/kg (Mus musculus [31]): 82% | inhibition in vivo at 10 mg/kg/day (NCI-H1975 [16]): 113% | inhibition in vivo at 10 mg/kg (Mus musculus [32]): 57% | inhibition in vivo at 10 mg/kg/day (A-431 [17]): 16% | inhibition (Insulin receptor [25]): 98% | inhibition in vivo at 10 mg/kg (Mus musculus [26]): 99% | IC50 [11]: 0.026 µM | inhibition in vivo at 10 mg/kg (Mus musculus [27]): 79%
